Experimental data reported in US20210238173A1, “MITOGEN-ACTIVATED PROTEIN KINASE KINASE 7 INHIBITORS” (Yeda Research and Development Co. Ltd., priority 2018, published 2021).

What was measured:
Format in all cases: biochemical
Conditions in all cases: 1 μM compound
[1] = molecular target: IRAK4 (Homo sapiens, UniProt Q9NWZ3); test: Kinome selectivity screen IRAK4
Protocol: (§1) Kinome Selectivity Screen:
(§2) Kinase selectivity was assessed using the Life Technologies SelectScreen Kinase Profiling Service in a custom panel of 76 kinases selected to provide broad representative coverage of all kinase families. Kinase activity assays employed either the Z′-LYTE or Adapta assay technologies with ATP concentrations at or near the KM, ATP for each kinase and a test compound concentration of 1 μM.

[2] = molecular target: KIT (Homo sapiens, UniProt P10721); test: Kinome selectivity screen KIT
Protocol: as §1, §2

[3] = molecular target: DCAMKL2 (DCK2) (Homo sapiens, UniProt Q8N568); test: Kinome selectivity screen DCAMKL2
Protocol: as §1, §2

[4] = molecular target: SYK (Homo sapiens, UniProt P43405); test: Kinome selectivity screen SYK
Protocol: as §1, §2

[5] = molecular target: LRRK2 FL (Homo sapiens, UniProt Q5S007); test: Kinome selectivity screen LRRK2 FL
Protocol: as §1, §2

[6] = molecular target: PKN1 (PRK1) (Homo sapiens, UniProt Q16512); test: Kinome selectivity screen PKN1
Protocol: as §1, §2

[7] = molecular target: ERBB2 (HER2) (Homo sapiens, UniProt P04626); test: Kinome selectivity screen ERBB2
Protocol: as §1, §2

[8] = molecular target: MAP2K4 (MEK4) (Homo sapiens, UniProt P45985); test: Kinome selectivity screen MAP2K4
Protocol: as §1, §2

[9] = molecular target: MAP4K5 (KHS1) (Homo sapiens, UniProt Q9Y4K4); test: Kinome selectivity screen MAP4K5
Protocol: as §1, §2

[10] = molecular target: AMPK A1/B1/G1 (Homo sapiens, UniProt Q13131); test: Kinome selectivity screen AMPK
Protocol: as §1, §2

[11] = molecular target: BTK (Homo sapiens, UniProt Q06187); test: Kinome selectivity screen BTK
Protocol: as §1, §2

[12] = molecular target: TEK (Tie2) (Homo sapiens, UniProt Q02763); test: Kinome selectivity screen TEK
Protocol: as §1, §2

[13] = molecular target: STK22D (TSSK1) (Homo sapiens, UniProt Q9BXA7); test: Kinome selectivity screen STK22D
Protocol: as §1, §2

[14] = molecular target: NTRK1 (TRKA) (Homo sapiens, UniProt P04629); test: Kinome selectivity screen NTRK1
Protocol: as §1, §2

[15] = molecular target: GRK4 (Homo sapiens, UniProt P32298); test: Kinome selectivity screen GRK4
Protocol: as §1, §2

[16] = molecular target: MAP2K1 (MEK1) (Homo sapiens, UniProt Q02750); test: Kinome selectivity screen MAP2K1
Protocol: as §1, §2

[17] = molecular target: PLK1 (Homo sapiens, UniProt P53350); test: Kinome selectivity screen PLK1
Protocol: as §1, §2

[18] = molecular target: RPS6KB1 (p70S6K) (Homo sapiens, UniProt P23443); test: Kinome selectivity screen RPS6KB1
Protocol: as §1, §2

[19] = molecular target: CSNK2A1 (CK2 alpha 1) (Homo sapiens, UniProt P68400); test: Kinome selectivity screen CSNK2A1
Protocol: as §1, §2

[20] = molecular target: NEK1 (Homo sapiens, UniProt Q96PY6); test: Kinome selectivity screen NEK1
Protocol: as §1, §2

[21] = molecular target: RET (Homo sapiens, UniProt P07949); test: Kinome selectivity screen RET
Protocol: as §1, §2

[22] = molecular target: ACVR1B (ALK4) (Homo sapiens, UniProt P36896); test: Kinome selectivity screen ACVR1B
Protocol: as §1, §2

[23] = molecular target: PAK4 (Homo sapiens, UniProt O96013); test: Kinome selectivity screen PAK4
Protocol: as §1, §2

[24] = molecular target: PRKACA (PKA) (Homo sapiens, UniProt P17612); test: Kinome selectivity screen PRKACA
Protocol: as §1, §2

[25] = molecular target: IKBKB (IKK beta) (Homo sapiens, UniProt O14920); test: Kinome selectivity screen IKBKB
Protocol: as §1, §2

[26] = molecular target: FLT1 (VEGFR1) (Homo sapiens, UniProt P17948); test: Kinome selectivity screen FLT1
Protocol: as §1, §2

[27] = molecular target: PIK3CA/PIK3R1 (p110 alpha/p85 alpha) (Homo sapiens, UniProt P42336); test: Kinome selectivity screen PIK3CA/PIK3R1
Protocol: as §1, §2

[28] = molecular target: FRAP1 (mTOR) (Homo sapiens, UniProt P42345); test: Kinome selectivity screen FRAP1
Protocol: as §1, §2

[29] = molecular target: FGFR1 (Homo sapiens, UniProt P11362); test: Kinome selectivity screen FGFR1
Protocol: as §1, §2

[30] = molecular target: PDGFRB (PDGFR beta) (Homo sapiens, UniProt P09619); test: Kinome selectivity screen PDGFRB
Protocol: as §1, §2

[31] = molecular target: SRC (Homo sapiens, UniProt P12931); test: Kinome selectivity screen SRC
Protocol: as §1, §2

[32] = molecular target: FLT3 (Homo sapiens, UniProt P36888); test: Kinome selectivity screen FLT3
Protocol: as §1, §2

[33] = molecular target: MAPK14 (p38 alpha) (Homo sapiens, UniProt Q16539); test: Kinome selectivity screen MAPK14
Protocol: as §1, §2

PDGFRB (PDGFR beta), sequence (P09619 33-1106): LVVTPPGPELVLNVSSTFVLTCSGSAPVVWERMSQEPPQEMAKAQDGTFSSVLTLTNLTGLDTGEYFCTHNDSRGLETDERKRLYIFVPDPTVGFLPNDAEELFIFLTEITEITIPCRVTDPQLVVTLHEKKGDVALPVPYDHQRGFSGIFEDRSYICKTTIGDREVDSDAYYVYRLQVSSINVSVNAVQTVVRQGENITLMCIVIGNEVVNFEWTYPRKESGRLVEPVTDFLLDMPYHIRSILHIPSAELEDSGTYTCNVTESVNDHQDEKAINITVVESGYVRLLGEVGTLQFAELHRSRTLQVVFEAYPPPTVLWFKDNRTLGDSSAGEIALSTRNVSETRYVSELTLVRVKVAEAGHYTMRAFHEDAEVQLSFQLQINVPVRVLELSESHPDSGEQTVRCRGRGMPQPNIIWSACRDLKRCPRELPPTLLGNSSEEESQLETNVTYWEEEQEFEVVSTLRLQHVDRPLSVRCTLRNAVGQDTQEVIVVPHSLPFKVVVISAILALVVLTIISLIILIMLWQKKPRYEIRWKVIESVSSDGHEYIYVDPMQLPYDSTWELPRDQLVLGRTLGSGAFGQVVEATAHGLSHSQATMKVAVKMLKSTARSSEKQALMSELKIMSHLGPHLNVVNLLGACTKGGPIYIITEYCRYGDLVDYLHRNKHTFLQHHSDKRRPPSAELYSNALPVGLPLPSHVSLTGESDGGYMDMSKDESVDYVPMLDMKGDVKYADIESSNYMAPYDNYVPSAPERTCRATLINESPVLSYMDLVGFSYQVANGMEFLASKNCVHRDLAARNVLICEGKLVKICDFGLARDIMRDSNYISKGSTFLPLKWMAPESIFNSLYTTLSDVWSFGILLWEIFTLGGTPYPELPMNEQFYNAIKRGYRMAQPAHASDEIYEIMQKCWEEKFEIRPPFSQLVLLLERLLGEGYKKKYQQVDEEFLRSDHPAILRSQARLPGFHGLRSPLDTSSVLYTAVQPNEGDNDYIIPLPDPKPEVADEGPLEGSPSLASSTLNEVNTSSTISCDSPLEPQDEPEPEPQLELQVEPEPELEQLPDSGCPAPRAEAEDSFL
LRRK2 FL, sequence (Q5S007 whole entry): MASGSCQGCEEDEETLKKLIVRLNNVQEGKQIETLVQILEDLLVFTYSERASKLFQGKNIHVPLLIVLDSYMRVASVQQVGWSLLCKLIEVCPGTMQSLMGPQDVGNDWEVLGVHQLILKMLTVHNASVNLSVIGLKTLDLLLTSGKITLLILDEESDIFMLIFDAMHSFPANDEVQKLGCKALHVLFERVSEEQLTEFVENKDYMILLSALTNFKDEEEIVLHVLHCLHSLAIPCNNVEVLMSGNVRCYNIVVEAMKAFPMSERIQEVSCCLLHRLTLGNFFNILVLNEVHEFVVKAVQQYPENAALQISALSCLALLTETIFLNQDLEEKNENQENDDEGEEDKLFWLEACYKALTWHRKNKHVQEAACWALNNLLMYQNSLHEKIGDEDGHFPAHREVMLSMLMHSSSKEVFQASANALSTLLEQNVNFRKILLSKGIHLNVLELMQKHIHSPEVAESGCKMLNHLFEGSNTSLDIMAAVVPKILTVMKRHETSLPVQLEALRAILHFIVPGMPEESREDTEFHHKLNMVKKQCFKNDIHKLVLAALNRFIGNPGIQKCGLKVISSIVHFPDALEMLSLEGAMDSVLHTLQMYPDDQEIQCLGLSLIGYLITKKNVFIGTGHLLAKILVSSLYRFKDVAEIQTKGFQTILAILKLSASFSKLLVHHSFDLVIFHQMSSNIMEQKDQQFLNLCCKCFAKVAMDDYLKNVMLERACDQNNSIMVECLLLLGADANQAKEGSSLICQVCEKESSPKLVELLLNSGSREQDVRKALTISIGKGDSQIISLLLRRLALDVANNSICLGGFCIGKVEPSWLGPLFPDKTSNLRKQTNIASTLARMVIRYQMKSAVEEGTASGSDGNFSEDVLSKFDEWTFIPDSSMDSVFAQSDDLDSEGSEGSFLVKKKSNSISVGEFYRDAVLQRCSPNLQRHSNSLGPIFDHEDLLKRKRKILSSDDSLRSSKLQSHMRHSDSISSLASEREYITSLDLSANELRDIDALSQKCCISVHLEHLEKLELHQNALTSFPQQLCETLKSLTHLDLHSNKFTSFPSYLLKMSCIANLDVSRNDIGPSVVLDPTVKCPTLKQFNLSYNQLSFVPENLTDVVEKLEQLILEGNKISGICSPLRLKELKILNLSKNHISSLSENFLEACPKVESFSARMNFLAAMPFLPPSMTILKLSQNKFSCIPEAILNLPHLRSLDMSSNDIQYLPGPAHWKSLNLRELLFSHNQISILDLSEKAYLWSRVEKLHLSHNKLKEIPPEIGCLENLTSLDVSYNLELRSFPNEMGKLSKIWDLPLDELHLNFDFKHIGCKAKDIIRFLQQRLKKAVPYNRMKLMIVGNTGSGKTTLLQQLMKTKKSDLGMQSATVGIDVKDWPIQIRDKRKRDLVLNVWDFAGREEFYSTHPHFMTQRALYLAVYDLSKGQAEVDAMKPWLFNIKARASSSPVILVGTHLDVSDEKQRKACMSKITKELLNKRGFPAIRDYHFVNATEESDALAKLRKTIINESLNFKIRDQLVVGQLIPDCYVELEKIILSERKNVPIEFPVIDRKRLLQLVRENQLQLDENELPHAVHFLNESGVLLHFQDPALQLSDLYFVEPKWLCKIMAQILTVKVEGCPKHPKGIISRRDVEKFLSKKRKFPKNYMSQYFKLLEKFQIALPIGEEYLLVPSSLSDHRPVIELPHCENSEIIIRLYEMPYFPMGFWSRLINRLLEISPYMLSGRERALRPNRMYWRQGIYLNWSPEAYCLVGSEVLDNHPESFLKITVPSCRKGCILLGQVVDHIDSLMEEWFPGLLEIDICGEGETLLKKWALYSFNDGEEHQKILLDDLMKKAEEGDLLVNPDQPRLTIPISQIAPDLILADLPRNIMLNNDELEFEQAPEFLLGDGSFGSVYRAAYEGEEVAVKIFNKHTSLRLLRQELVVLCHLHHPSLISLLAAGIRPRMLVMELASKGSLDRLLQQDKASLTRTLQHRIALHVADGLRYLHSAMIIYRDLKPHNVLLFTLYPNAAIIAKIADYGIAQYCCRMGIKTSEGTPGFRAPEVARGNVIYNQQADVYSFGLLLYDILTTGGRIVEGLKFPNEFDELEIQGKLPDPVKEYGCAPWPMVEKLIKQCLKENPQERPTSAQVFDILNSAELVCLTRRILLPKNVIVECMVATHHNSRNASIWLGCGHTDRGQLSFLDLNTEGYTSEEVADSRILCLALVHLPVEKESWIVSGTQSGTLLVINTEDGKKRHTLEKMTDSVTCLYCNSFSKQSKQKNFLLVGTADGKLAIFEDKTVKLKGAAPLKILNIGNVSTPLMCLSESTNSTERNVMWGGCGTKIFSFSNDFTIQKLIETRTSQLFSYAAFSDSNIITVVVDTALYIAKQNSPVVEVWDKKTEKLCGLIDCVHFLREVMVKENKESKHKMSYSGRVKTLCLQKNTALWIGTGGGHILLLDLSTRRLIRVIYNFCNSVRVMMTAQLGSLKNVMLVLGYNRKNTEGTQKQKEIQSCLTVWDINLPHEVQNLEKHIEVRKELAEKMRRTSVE
NEK1, sequence (Q96PY6 whole entry): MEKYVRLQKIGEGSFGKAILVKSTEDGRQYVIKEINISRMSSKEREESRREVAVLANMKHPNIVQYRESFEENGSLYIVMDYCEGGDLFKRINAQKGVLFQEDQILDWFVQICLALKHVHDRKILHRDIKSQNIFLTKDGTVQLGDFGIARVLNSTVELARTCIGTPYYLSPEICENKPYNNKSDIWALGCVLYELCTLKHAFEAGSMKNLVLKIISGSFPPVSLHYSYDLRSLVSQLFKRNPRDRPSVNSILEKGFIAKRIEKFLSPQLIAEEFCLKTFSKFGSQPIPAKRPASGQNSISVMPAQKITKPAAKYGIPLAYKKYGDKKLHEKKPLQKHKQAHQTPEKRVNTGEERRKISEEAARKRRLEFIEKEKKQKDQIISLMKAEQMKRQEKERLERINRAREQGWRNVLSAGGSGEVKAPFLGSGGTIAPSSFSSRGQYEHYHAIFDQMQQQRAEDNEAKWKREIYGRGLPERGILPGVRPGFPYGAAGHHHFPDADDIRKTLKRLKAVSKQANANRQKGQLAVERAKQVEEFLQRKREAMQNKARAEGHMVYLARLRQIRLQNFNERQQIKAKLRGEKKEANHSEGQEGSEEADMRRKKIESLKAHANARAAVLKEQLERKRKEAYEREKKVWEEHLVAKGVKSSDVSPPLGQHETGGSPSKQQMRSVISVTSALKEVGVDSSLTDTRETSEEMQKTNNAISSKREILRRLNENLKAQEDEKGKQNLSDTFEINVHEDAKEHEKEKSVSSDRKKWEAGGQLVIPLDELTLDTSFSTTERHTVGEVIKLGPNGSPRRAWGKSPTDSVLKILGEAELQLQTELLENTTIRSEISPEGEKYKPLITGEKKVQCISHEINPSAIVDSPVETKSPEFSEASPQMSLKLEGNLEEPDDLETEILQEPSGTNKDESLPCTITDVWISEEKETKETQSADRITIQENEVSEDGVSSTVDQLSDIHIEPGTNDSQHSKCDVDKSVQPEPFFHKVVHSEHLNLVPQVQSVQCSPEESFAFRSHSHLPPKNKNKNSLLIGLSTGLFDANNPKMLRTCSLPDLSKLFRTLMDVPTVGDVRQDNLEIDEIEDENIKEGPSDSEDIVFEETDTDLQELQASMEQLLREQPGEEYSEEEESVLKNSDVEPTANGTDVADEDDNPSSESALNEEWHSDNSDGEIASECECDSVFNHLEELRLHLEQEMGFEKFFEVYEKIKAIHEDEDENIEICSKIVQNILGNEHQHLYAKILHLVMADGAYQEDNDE

Compound	inhibition at 1 µM [1] [%]	inhibition at 1 µM [2] [%]	inhibition at 1 µM [3] [%]	inhibition at 1 µM [4] [%]	inhibition at 1 µM [5] [%]	inhibition at 1 µM [6] [%]	inhibition at 1 µM [7] [%]	inhibition at 1 µM [8] [%]	inhibition at 1 µM [9] [%]	inhibition at 1 µM [10] [%]	inhibition at 1 µM [11] [%]	inhibition at 1 µM [12] [%]	inhibition at 1 µM [13] [%]	inhibition at 1 µM [14] [%]	inhibition at 1 µM [15] [%]	inhibition at 1 µM [16] [%]	inhibition at 1 µM [17] [%]	inhibition at 1 µM [18] [%]	inhibition at 1 µM [19] [%]	inhibition at 1 µM [20] [%]	further results
C=CC(=O)Nc1cccc(-c2n[nH]c3ccccc23)c1 [GO32]	15	17	-2	19	91	4	1	79	22	-5	11	25	0	22	-5	4	1	5	0	5	inhibition at 1 µM [21]: 6%; inhibition at 1 µM [22]: -8%; inhibition at 1 µM [23]: -11%; inhibition at 1 µM [24]: -8%; inhibition at 1 µM [25]: -3%; inhibition at 1 µM [26]: -1%; inhibition at 1 µM [27]: -6%; inhibition at 1 µM [28]: -2%; inhibition at 1 µM [29]: 2%; inhibition at 1 µM [30]: -3%; inhibition at 1 µM [31]: 10%; inhibition at 1 µM [32]: 55%; inhibition at 1 µM [33]: 9%
C=CC(=O)Nc1cccc(-c2n[nH]c3cc(C)ccc23)c1 [GO80]	12	10	-1	17	86	1	-1	81	-11	-5	15	1	-1	44	-3	4	3	0	-2	2	inhibition at 1 µM [21]: 5%; inhibition at 1 µM [22]: 5%; inhibition at 1 µM [23]: -16%; inhibition at 1 µM [24]: -10%; inhibition at 1 µM [25]: -5%; inhibition at 1 µM [26]: 2%; inhibition at 1 µM [27]: -19%; inhibition at 1 µM [28]: -2%; inhibition at 1 µM [29]: -2%; inhibition at 1 µM [30]: -13%; inhibition at 1 µM [31]: -4%; inhibition at 1 µM [32]: 79%; inhibition at 1 µM [33]: 16%
